Laboratory results published in patent US7323456B2, “Carboxylic acid derivatives compounds and agents comprising the compounds as active ingredient” (Ono Pharmaceutical Co., Ltd., priority 2001, dated 2008).

What was measured:
[1] = molecular target: T1, human PPAR γ (Homo sapiens, UniProt P37231); experiment: Luciferase assay of PPAR γ agonistic activity (Gal4-PPAR chimeric receptor, CV-1 cells); type: cell-based; conditions: compound 10 μM, luciferase activity of troglitazone (10 μM) defined as 1.0, 42 hours
T1 construct: expressed in transfected cells; host or cells: CV-1 cells
T1 sequence (P37231 204-505): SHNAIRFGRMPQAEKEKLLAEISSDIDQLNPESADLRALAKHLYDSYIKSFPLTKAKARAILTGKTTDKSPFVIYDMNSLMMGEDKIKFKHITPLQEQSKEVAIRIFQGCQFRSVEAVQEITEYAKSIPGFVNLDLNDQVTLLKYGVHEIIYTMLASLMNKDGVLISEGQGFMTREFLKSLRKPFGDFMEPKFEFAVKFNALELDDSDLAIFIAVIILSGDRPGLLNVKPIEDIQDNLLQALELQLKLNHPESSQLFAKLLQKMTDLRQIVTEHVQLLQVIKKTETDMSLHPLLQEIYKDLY

[2] = molecular target: T2, human PPAR α (Homo sapiens, UniProt Q07869); experiment: Luciferase assay of PPAR α agonistic activity (Gal4-PPAR chimeric receptor, CV-1 cells); type: cell-based; conditions: compound 10 μM, luciferase activity of carbacyclin (10 μM) defined as 1.0, 42 hours
T2 construct: expressed in transfected cells; host or cells: CV-1 cells
T2 sequence (Q07869 167-468): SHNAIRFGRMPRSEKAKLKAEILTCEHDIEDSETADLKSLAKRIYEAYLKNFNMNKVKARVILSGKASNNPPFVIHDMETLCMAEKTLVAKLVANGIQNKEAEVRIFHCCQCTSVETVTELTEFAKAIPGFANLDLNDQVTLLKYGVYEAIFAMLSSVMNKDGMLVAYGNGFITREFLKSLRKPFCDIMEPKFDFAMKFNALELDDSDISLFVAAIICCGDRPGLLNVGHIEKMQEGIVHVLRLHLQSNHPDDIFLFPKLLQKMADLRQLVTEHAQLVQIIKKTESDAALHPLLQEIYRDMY

C=CCN(CC(=O)O)Cc1cccc(OCCc2nc(-c3ccc(N4CCCCCC4)nc3)oc2C)c1 [Example 2, 2-(N-allyl-N-(3-(2-(2-(6-(perhydroazepin-1-yl)pyridin-3-yl)-5-methyloxazol-4-yl)ethoxy)benzyl)amino)acetic acid]
Relative Activity to a positive control compound (troglitazone = 1) [1]: 11.5 | Relative Activity to a positive control compound (carbacyclin = 1) [2]: 0.9
